# Experimental data reported in US20160030365A1, “PHARMACEUTICAL OR COSMETIC COMPOSITION SUITABLE TO PRESERVE EPITHELIAL STEM CELLS” (GIULIANI S.P.A., priority 2013, published 2016).
# System: keratin K15 (cytokeratin 15, CK15) of human epithelial hair follicle stem cells
# Assay: Quantitative immunohistochemistry for keratin K15 in organ-cultured human hair follicles
# Format: cell-based
# Settings: for relative intensity of immunohistochemistry of keratin K15: microdissected human anagen VI hair follicles in organ culture, 6 days, relative intensity of the vehicle=1
# Text: The scope of the study is to determine the effects of N^1-methyl spermidine, a compound of formula (I) of this invention, on the biomarker keratin K15 (cytokeratin 15, CK15) of human epithelial hair follicle stem cells (heHFSCs). As reference on this point in the literature we can quote Kloepper JE et al. (2008), Immunophenotyping of the human bulge region: the quest to define useful in situ markers for human epithelial hair follicle stem cells and their niche. Exp Dermatol 17: 592-609.
# Scalp samples were collected from two women who were submitted to surgical lifting, after obtaining their informed consent. Experiments were performed in compliance with the Helsinki principles, with the Ethics Committee's approval. Details of samples are described in Table 1 below.
# J Dermatol Sci 7: SuppIS 55-72.
# N^1-methyl-spermidine of the invention or spermidine or the vehicle were changed every 48 hours with the culture medium. A summary of the study procedure is presented in Table 2 below, in which N^1-methyl spermidine, the compound of formula (II) of this invention, used in the test at concentrations of 0.5 and 1.5 μM is the active substance', while spermidine was used as a control at the concentration of 0.5 μM.
# The tyramide signal amplification method was used to assess the expression of keratin K15, as described in the abovementioned paper by Kloepper et al. (2008). The cryosections fixed in acetone were washed thrice for 5 minutes using the buffer (0.1 mol/L Tris-HCl, pH 7.5, containing 0.15 mol/L NaCl and 0.05% Tween 20) TNT (Tris-HCl NaCl Tween). Later, peroxidase was inhibited by washing with 3% H2O2 in phosphate buffered saline (PBS) for 15 min. Preincubation was performed with avidin and biotin for 15 minutes, and with 5% normal goat serum in TNT for 30 minutes with intermediate lavage. The Mouse Anti-Human K15 antibody (clone LHK15, Chemicon, Billerica, USA) was diluted in TNT and incubated for one night at 4° C. This incubation period was followed by a second incubation period with a secondary biotinylated Goat Anti-Mouse antibody (1:200 in TNT) for 45 minutes in RT. […] Immunohistochemistry intensity was quantified with the ImageJ software (National Institutes of Health). Stain intensity of the defined reference regions of the follicle was measured and compared between the control groups and groups treated with N^1-methyl spermidine at the concentrations of 0.5 and 1.5 μM, or with spermidine 0.5 μM. • Statistical Analysis
# The statistical analysis was performed using a two tailed Student t-test for samples that were not coupled. To group the two experiments, each treatment group was compared with the control group (mean value), and the relative variation in expression was calculated.
Structure (SMILES),inductive effect towards keratin K15 compared with an equal concentration of spermidine (0.5 μM vs spermidine 0.5 μM),relative intensity of immunohistochemistry of keratin K15 (0.5 μM),relative intensity of immunohistochemistry of keratin K15 (1.5 μM)
"CN(CCCN)CCCCN [N^1-methyl spermidine, N-(3-aminopropyl)-N^1-methyl-1,4-butandiamine]",higher than that of an equal concentration of 0.5 μM of spermidine,1.739,1.806
"NCCCCNCCCN [spermidine, reference compound]",–,1.12,–
